The results in this text go back to publication PMC8320071 (ACS Omega, 2021).

Data set [1] deals with T1, leucine aminopeptidase from Leishmania donovani (LdLAP) (Leishmania donovani, UniProt A0A3S7WXR2).
T1 sequence (A0A3S7WXR2 1-565): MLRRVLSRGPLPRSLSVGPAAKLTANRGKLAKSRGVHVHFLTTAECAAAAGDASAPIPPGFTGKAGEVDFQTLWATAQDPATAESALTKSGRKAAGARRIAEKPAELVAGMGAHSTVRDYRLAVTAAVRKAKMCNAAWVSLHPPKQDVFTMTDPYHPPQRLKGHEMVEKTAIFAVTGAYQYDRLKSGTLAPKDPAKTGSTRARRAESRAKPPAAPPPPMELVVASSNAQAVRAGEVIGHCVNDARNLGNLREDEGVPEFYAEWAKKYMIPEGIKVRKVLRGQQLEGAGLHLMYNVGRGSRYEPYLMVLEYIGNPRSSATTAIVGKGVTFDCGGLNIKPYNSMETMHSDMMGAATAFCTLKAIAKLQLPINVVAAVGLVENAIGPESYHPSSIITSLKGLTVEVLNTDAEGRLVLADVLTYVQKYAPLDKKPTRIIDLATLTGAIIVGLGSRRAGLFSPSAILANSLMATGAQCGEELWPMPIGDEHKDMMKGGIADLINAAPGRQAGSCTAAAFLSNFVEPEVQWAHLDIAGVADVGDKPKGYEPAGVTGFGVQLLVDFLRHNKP
As to the kind of experiment: Leu-AMC fluorogenic aminopeptidase assay with double-reciprocal plots. Format: biochemical.

Substrate in data set [2]: Cc1cc(=O)oc2cc(NC(=O)[C@@H](N)CC(C)C)ccc12
The experiment in a line: purified protein. Particulars: Mn(II).

In data set [1], `CCCCC[C@H](CC(=O)NO)C(=O)N[C@H](C(=O)N1CCC[C@H]1CO)C(C)C` [actinonin] showed a Ki of 2.7 nM.

In turn, `CC(C)C[C@H](NC(=O)[C@@H](O)[C@H](N)Cc1ccccc1)C(=O)O` [bestatin] gave a Ki in data set [1] of 4.38 nM.

B1: leucine aminopeptidase from Leishmania donovani (LdLAP) (Leishmania donovani) (protein)
chain: MLRRVLSRGPLPRSLSVGPAAKLTANRGKLAKSRGVHVHFLTTAECAAAAGDASAPIPPGFTGKAGEVDFQTLWATAQDPATAESALTKSGRKAAGARRIAEKPAELVAGMGAHSTVRDYRLAVTAAVRKAKMCNAAWVSLHPPKQDVFTMTDPYHPPQRLKGHEMVEKTAIFAVTGAYQYDRLKSGTLAPKDPAKTGSTRARRAESRAKPPAAPPPPMELVVASSNAQAVRAGEVIGHCVNDARNLGNLREDEGVPEFYAEWAKKYMIPEGIKVRKVLRGQQLEGAGLHLMYNVGRGSRYEPYLMVLEYIGNPRSSATTAIVGKGVTFDCGGLNIKPYNSMETMHSDMMGAATAFCTLKAIAKLQLPINVVAAVGLVENAIGPESYHPSSIITSLKGLTVEVLNTDAEGRLVLADVLTYVQKYAPLDKKPTRIIDLATLTGAIIVGLGSRRAGLFSPSAILANSLMATGAQCGEELWPMPIGDEHKDMMKGGIADLINAAPGRQAGSCTAAAFLSNFVEPEVQWAHLDIAGVADVGDKPKGYEPAGVTGFGVQLLVDFLRHNKP
As for B1, in data set [2], the Km was found to be 57.29 µM and the kcat/Km is 5820 M⁻¹ s⁻¹.
